The target in this test is hCav2.2 (Homo sapiens, UniProt Q00975). The test is described as follows: cell-based. As to conditions: SEM.

Our source for the IC50 values is paper PMC6128854 (Scientific Reports, 2018).

Positions of bridges follow the written chain, without caps; N, C: chain ends. Non-standard residues stand in square brackets, D forms with d. Residues, ends and D or L forms follow the SMILES beside them. Hyp = O=C(O)[C@@H]1C[C@@H](O)CN1

Sequence of hCav2.2 (Q00975 whole entry, looked up): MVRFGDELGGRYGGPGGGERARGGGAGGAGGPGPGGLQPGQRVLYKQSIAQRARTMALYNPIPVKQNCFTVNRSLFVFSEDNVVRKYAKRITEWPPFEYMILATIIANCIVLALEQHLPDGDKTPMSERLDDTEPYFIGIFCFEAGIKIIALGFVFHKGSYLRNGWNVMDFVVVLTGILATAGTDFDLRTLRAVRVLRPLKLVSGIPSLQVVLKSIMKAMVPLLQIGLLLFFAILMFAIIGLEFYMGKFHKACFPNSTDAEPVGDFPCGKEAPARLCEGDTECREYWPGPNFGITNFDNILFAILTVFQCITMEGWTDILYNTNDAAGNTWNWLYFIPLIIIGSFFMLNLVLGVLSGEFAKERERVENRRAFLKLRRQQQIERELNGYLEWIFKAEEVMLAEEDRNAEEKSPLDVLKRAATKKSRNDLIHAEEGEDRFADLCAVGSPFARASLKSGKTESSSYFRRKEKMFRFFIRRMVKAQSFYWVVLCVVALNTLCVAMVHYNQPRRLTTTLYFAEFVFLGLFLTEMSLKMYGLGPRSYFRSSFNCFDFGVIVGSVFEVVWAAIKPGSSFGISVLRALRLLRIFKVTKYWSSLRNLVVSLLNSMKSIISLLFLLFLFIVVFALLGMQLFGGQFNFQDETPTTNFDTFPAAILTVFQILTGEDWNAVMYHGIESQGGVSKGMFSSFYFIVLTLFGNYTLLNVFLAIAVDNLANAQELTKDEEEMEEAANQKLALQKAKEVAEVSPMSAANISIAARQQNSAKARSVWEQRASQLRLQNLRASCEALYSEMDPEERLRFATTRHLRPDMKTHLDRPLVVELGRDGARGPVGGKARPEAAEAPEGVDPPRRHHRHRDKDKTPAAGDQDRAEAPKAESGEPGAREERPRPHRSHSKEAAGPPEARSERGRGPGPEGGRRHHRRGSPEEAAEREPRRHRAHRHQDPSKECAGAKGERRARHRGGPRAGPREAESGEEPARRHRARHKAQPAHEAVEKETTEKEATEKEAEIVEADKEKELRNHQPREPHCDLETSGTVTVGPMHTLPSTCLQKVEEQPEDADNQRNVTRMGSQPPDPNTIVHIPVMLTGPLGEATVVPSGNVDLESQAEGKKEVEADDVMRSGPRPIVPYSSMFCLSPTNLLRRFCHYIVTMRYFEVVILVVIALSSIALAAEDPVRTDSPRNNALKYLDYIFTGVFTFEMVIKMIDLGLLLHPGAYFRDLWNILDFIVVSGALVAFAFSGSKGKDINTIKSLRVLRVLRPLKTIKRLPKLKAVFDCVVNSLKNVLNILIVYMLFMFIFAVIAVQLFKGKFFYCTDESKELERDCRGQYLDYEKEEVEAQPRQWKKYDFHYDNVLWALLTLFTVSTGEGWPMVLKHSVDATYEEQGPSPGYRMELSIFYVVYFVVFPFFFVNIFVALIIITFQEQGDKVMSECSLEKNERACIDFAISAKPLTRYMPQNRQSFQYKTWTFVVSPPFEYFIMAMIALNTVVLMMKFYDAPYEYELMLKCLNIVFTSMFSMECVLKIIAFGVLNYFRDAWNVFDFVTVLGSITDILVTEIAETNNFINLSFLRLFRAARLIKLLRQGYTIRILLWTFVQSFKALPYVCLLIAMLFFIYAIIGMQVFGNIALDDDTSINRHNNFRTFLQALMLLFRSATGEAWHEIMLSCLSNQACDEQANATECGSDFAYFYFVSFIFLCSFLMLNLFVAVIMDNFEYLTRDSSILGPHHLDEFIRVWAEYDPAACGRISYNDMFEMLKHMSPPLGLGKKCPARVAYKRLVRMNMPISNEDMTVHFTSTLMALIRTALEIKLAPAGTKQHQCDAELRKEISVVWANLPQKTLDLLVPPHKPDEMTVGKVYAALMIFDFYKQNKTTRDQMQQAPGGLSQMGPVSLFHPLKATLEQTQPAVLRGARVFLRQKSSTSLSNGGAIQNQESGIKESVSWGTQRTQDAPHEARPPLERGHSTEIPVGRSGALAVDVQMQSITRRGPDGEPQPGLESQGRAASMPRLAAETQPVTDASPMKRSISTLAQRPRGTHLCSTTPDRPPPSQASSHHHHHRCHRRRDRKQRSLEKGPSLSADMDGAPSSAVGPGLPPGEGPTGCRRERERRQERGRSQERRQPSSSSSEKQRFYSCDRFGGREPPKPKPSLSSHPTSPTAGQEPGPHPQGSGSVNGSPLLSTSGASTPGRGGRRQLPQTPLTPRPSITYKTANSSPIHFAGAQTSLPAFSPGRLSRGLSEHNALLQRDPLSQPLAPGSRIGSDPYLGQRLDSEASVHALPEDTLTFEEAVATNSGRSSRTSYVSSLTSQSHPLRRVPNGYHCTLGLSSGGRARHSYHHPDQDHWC

In the case of `CC[C@H](C)[C@@H]1NC(=O)[C@@H]2CSSC[C@@H]3NC(=O)[C@H](CCCCN)NC(=O)[C@H](CO)NC(=O)CNC(=O)[C@@H]4C[C@@H](O)CN4C(=O)[C@@H]4CCCN4C(=O)[C@H](CCCCN)NC(=O)[C@@H](N)CSSC[C@H](NC(=O)[C@H](CSSC[C@@H](C(=O)N[C@@H](CCCNC(=N)N)C(=O)N[C@@H](CCCCN)C(=O)N[C@@H](Cc4ccc(O)cc4)C(=O)N[C@@H](Cc4ccc(O)cc4)C(=O)O)NC(=O)[C@H](CCCNC(=N)N)NC(=O)[C@H](CCCCN)NC(=O)[C@H]([C@@H](C)O)NC(=O)[C@H](Cc4ccc(O)cc4)NC(=O)[C@H](CO)NC1=O)NC(=O)[C@H](CC(=O)O)NC(=O)[C@H](Cc1ccc(O)cc1)NC(=O)[C@H](CCSC)NC(=O)[C@H](CO)NC(=O)[C@@H]1C[C@@H](O)CN1C(=O)[C@H](CO)NC3=O)C(=O)N[C@@H]([C@@H](C)O)C(=O)N[C@@H]([C@@H](C)O)C(=O)N2` [MoVIB-[R13Y]] (H-CKP[Hyp]GSKCS[Hyp]SMYDCCTTCISYTKRCRKYY-OH; disulfide 1-16, 8-19, 15-26), half-maximal inhibition (IC50) required 3.47 ± 0.55 µM.
